# Measured values taken from patent US20260226085A1, “HETEROCYCLIC COMPOUNDS AS WRN INHIBITORS” (Synnovation Therapeutics, Inc., priority 2023, published 2026).
# Tested on: SW48 colorectal cancer cells
# Test: Cell-Titer Glo measurement of growth-inhibitory activity in SW48 cells
# Format: cell-based
# Conditions: Homo sapiens, 120 h, cell viability on day 5, Cell-titer Glo, baseline subtracted, 4PL fit, read-out: SW48_GI50
# Protocol: Example A. Cell-Titer Glo Measurement of Growth-Inhibitory Activity in SW48 Cells
# This cell-based assay measures growth-inhibitory activity of selected WRN inhibitors in SW48 colorectal cancer cells. SW48 cell line (#CCL-231) was purchased from American type culture collection (ATCC). Cells were cultured following ATCC instructions. The base medium for this cell line is ATCC-formulated Leibovitz's L-15 Medium (#30-2008). To prepare complete medium, fetal bovine serum was added at a final concentration of 10%. Antibiotics including penicillin and streptomycin (#SV30010) were purchased from Cytiva and added into complete medium to prevent bacteria contamination. Cells with a passage number of below 20 were used in this cell-based assay. One day before the assay, cells were resuspended in complete medium and seeded into 96-well plates at a final density of 2000 cells per well. One extra plate was added to measure baseline viability on day 1 before compound treatment. Baseline cell viability was measured using Promega Cell-titer Glo reagent (#G7573) following the protocol provided by the manufacture. Compounds were dissolved in DMSO at a stock concentration of 10 mmol/L. Three-fold serial dilution was performed using DMSO to prepare master plates. Compounds were further diluted using complete medium and added into assay plates. The final concentration of DMSO was 0.2% in assay plates. Cell viability was measured on day 5 using Promega Cell-titer Glo reagent following the same protocol provided by the manufacture. Assay plates were kept on orbital shaker (300 rounds per min) for 2 min and then kept in 37° C. incubator for another 10 minutes. Cell-titer Glo luminescence signal was measured using i3x plate reader. Baseline cell viability was subtracted for growth inhibition 50 (GI50) estimate using GraphPad Prism following the four-parameter logistic (4PL) curve-fitting mathematical model.
row,Structure (SMILES),GI50 [nM]
1,"CCc1c(N2CCN(C(=O)c3ncc4ccccc4c3O)CC2)c(=O)n2nc(C3=CCOCC3)nc2n1CC(=O)Nc1ccc(C(F)(F)F)cc1Cl [Example 1, N-[2-Chloro-4-(trifluoromethyl)phenyl]-2-[2-(3,6-dihydro-2H-pyran-4-yl)-5-ethyl-6-[4-(4-hydroxyisoquinoline-3-carbonyl)piperazin-1-yl]-7-oxo-[1,2,4]triazolo[1,5-a]pyrimidin-4-yl]acetamide]",< 100
2,"CCc1c(N2CCN(C(=O)c3c(O)ccc4cccnc34)CC2)c(=O)n2nc(N3CCC4(CCCO4)CC3)nc2n1CC(=O)Nc1ccc(C(F)(F)F)cc1Cl [Example 6, N-(2-chloro-4-(trifluoromethyl)phenyl)-2-(5-ethyl-6-(4-(7-hydroxyquinoline-8-carbonyl)piperazin-1-yl)-7-oxo-2-(1-oxa-8-azaspiro[4.5]decan-8-yl)-[1,2,4]triazolo[1,5-a]pyrimidin-4(7H)-yl)acetamide]",100 to 1000
3,"CCc1c(N2CCN(C(=O)c3nc4ccccc4cc3O)CC2)c(=O)n2nc(C3=CCOCC3)nc2n1CC(=O)Nc1ccc(C(F)(F)F)cc1Cl [Example 2, N-[2-Chloro-4-(trifluoromethyl)phenyl]-2-[2-(3,6-dihydro-2H-pyran-4-yl)-5-ethyl-6-[4-(3-hydroxyquinoline-2-carbonyl)piperazin-1-yl]-7-oxo-[1,2,4]triazolo[1,5-a]pyrimidin-4-yl]acetamide]",< 100
4,"CCc1c(N2CCN(Cc3ncccc3O)CC2)c(=O)n2nc(N3CCC4(CCCO4)CC3)nc2n1CC(=O)Nc1ccc(C(F)(F)F)cc1Cl [Example 7, N-(2-chloro-4-(trifluoromethyl)phenyl)-2-(5-ethyl-6-(4-((3-hydroxypyridin-2-yl)methyl)piperazin-1-yl)-7-oxo-2-(1-oxa-8-azaspiro[4.5]decan-8-yl)-[1,2,4]triazolo[1,5-a]pyrimidin-4(7H)-yl)acetamide]",1000 to 5000
5,"CCc1c(N2CCN(Cc3ncccc3O)CC2)c(=O)n2nc(C3=CCOCC3)nc2n1CC(=O)Nc1ccc(C(F)(F)F)cc1Cl [Example 4, N-[2-chloro-4-(trifluoromethyl)phenyl]-2-[2-(3,6-dihydro-2H-pyran-4-yl)-5-ethyl-6-[4-[(3-hydroxy-2-pyridyl)methyl]piperazin-1-yl]-7-oxo-[1,2,4]triazolo[1,5-a]pyrimidin-4-yl]acetamide]",100 to 1000
6,"CCc1c(N2CCN(C(=O)c3c(O)ccc4cccnc34)CC2)c(=O)n2nc(C3=CCOCC3)nc2n1CC(=O)Nc1ccc(C(F)(F)F)cc1Cl [Example 5, N-[2-chloro-4-(trifluoromethyl)phenyl]-2-[2-(3,6-dihydro-2H-pyran-4-yl)-5-ethyl-6-[4-(7-hydroxyquinoline-8-carbonyl)piperazin-1-yl]-7-oxo-[1,2,4]triazolo[1,5-a]pyrimidin-4-yl]acetamide]",< 100

# The remaining lines, values ahead:
row,GI50 [nM],Structure (SMILES)
1,100 to 1000,"CCc1c(N2CCN(Cc3ncccc3O)CC2)c(=O)n2nc(-c3ccc(S(C)(=O)=O)cc3)nc2n1CC(=O)Nc1ccc(C(F)(F)F)cc1Cl [Example 9, N-(2-Chloro-4-(trifluoromethyl)phenyl)-2-(5-ethyl-6-(4-((3-hydroxypyridin-2-yl)methyl)piperazin-1-yl)-2-(4-(methylsulfonyl)phenyl)-7-oxo-[1,2,4]triazolo[1,5-a]pyrimidin-4(7H)-yl)acetamide]"
2,< 100,"CCc1c(N2CCN(C(=O)c3c(O)ccc4cccnc34)CC2)c(=O)n2nc(-c3ccc(S(C)(=O)=O)cc3)nc2n1CC(=O)Nc1ccc(C(F)(F)F)cc1Cl [Example 8, N-(2-Chloro-4-(trifluoromethyl)phenyl)-2-(5-ethyl-6-(4-(7-hydroxyquinoline-8-carbonyl)piperazin-1-yl)-2-(4-(methylsulfonyl)phenyl)-7-oxo-[1,2,4]triazolo[1,5-a]pyrimidin-4(7H)-yl)acetamide]"
3,< 100,"CCc1c(N2CCN(Cc3ncccc3O)CC2)c(=O)n2nc(-c3ccc(P(C)(C)=O)cc3)nc2n1CC(=O)Nc1ccc(C(F)(F)F)cc1Cl [Example 10, N-(2-Chloro-4-(trifluoromethyl)phenyl)-2-(2-(4-(dimethylphosphoryl)phenyl)-5-ethyl-6-(4-((3-hydroxypyridin-2-yl)methyl)piperazin-1-yl)-7-oxo-[1,2,4]triazolo[1,5-a]pyrimidin-4(7H)-yl)acetamide]"
